Type in all cases: cell-based
One test relates to E. coli ATCC 35218. The experiment in a line: In vitro antibacterial activity, MIC by tube dilution, Ec(2). The conditions noted are these: Nutrient Broth; for MIC: Escherichia coli, ATCC35218, overnight incubation at 37° C., read-out: Minimum Inhibitory Concentration (MIC).
The next test deals with Staph. aureus ATCC 29213. Description: In vitro antibacterial activity, MIC by tube dilution, SA(1). As to conditions: Nutrient Broth; for MIC: Staphylococcus aureus, ATCC29213, overnight incubation at 37° C., read-out: Minimum Inhibitory Concentration (MIC).
The next test has as its system E. coli ATCC 25922. Description: In vitro antibacterial activity, MIC by tube dilution, Ec(1). The conditions noted are these: Nutrient Broth; for MIC: Escherichia coli, ATCC25922, overnight incubation at 37° C., read-out: Minimum Inhibitory Concentration (MIC).
The test system of another test is Staph. aureus ACCC 25923. Description: In vitro antibacterial activity, MIC by tube dilution, SA(2). The conditions noted are these: Nutrient Broth; for MIC: Staphylococcus aureus, ACCC25923, overnight incubation at 37° C., read-out: Minimum Inhibitory Concentration (MIC).
In the next test the test system is Ser. marceslens. Description: In vitro antibacterial activity, MIC by tube dilution, SM. The conditions noted are these: overnight incubation at 37° C., Nutrient Broth; for MIC: read-out: Minimum Inhibitory Concentration (MIC).
The test system of the next test is Ent. cloacae. The experiment in a line: In vitro antibacterial activity, MIC by tube dilution, Ent C. As to conditions: overnight incubation at 37° C., Nutrient Broth; for MIC: Enterobacter cloacae, read-out: Minimum Inhibitory Concentration (MIC).
Another test has as its system E. Coli-OXA-7. Description: In vitro antibacterial activity of carbapenem, piperacillin and 1:1 combination. The conditions noted are these: single agent. Here is the method:
(§1) A sample of the carbapenems prepared in this invention is tested in combination with the penicillin Piperacillin. The enhanced combined synergistic antibacterial activity is representative of the anti β-lactamase properties of the carbapenems in this invention (Table 2).

The test system of a further test is E. Coli-OXA-4. The description is as above. The conditions noted are these: single agent. Here is the method: as §1
A further test relates to E. Coli-OXA-2. Described as above. As to conditions: single agent. How it is done:
as §1

The test system of another test is Pseudomonas OXA-6. Described as above. The conditions noted are these: single agent. Here is the method:
as §1

For another test, the system named is E. Coli-OXA-5. The description is as above. The conditions noted are these: single agent. How it is done: as §1

Each structure is given as a SMILES string. Counter-ions that a name gives are not always drawn.

Regarding `COC(=O)C(Cl)=C1CC2C(C(C)O)C(=O)N2C1C(=O)[O-].[Na+]` (stereo not drawn) [Example 44, (2R-[2Alpha,3(R* or S*),5alpha,6alpha(R*)]]-3-(1-chloro-2-methoxy-2-oxoethylidene)-6-(1-hydroxyethyl)-7-oxo-1-azabicyclo[3.2.0]heptane-2-carboxylic acid, monosodium salt], the “Minimum Inhibitory Concentration (MIC)” value in the test with E. coli ATCC 35218 (overnight incubation at 37° C.) is 128 µg/mL; with Staph. aureus ATCC 29213 (overnight incubation at 37° C.), 64 µg/mL; in the test on E. coli ATCC 25922 (overnight incubation at 37° C.), 128 µg/mL; in the test with Staph. aureus ACCC 25923 (overnight incubation at 37° C.) it was 64 µg/mL; in the test on Ser. marceslens, 128 µg/mL; in the test with Ent. cloacae, 128 µg/mL.
Regarding `CCN1CCN(C(=O)N[C@@H](C(=O)N[C@@H]2C(=O)N3[C@@H]2SC(C)(C)[C@@H]3C(=O)O)c2ccccc2)C(=O)C1=O` [Piperacillin, reference compound], the M.I.C. in the test with E. Coli-OXA-7 turned out to be 128 µg/mL; in the test on E. Coli-OXA-4 it was 8 µg/mL; with E. Coli-OXA-2, 16 µg/mL; with Pseudomonas OXA-6, 32 µg/mL; in the test with E. Coli-OXA-5 it was 2 µg/mL.
Consider `CC(O)C1C(=O)N2C(C(=O)O)=C(CS(=O)(=O)c3ccc(F)cc3)CC12` (stereo not drawn) [Example 48, [5R-[5Alpha,6alpha(R*)]]3-[[fluorophenyl)sulfonyl]methyl]-6-(1-hydroxyethyl)-7-oxo-1-azabicyclo[3.2.0]hept-2-ene-2-carboxylic acid, monosodium salt], for which the MIC was 8 µg/mL with E. coli ATCC 35218; 0.06 µg/mL in the test with Staph. aureus ATCC 29213; 8 µg/mL in the test with E. coli ATCC 25922; 0.06 µg/mL in the test on Staph. aureus ACCC 25923; 32 µg/mL in the test on Ser. marceslens; 64 µg/mL with Ent. cloacae. Moreover, the M.I.C. in the test with E. Coli-OXA-7 worked out at 16 µg/mL; with E. Coli-OXA-4, 32 µg/mL; in the test on E. Coli-OXA-2, 32 µg/mL; with Pseudomonas OXA-6, 128 µg/mL; in the test on E. Coli-OXA-5 it was 32 µg/mL.
`CC(O)C1C(=O)N2C(C(=O)O)=C(CS(=O)(=O)c3cccs3)CC12` (stereo not drawn) [Example 10, [5R-[5Alpha,6alpha(R*)]]-6-(1-hydroxyethyl)-3-[(2-thienylsulfonyl)methyl]-7-oxo-1-azabicyclo[3.2.0]-hept-2-ene-2-carboxylic acid, monosodium salt]: the MIC in the test with E. coli ATCC 35218 amounted to 1 µg/mL; in the test with Staph. aureus ATCC 29213, 0.06 µg/mL; with E. coli ATCC 25922, 1 µg/mL; with Staph. aureus ACCC 25923 it was 0.06 µg/mL; with Ser. marceslens, 32 µg/mL; with Ent. cloacae it was 32 µg/mL.
